Experimental data published in publication PMC3368247 (Frontiers in Pharmacology, 2012).
Like-named read-outs stand apart in the source and are kept apart here.

Tests used:
Type in all cases: cell-based
Cx50 GJ channels = Cx50 GJ channels (Mus musculus, UniProt P28236); conditions: for effect on Cx50 junctional current: 10 μM
Cx32 GJ channels = Cx32 GJ channels (Rattus norvegicus, UniProt P08033); assay: Cx32 junctional current, dual whole-cell voltage-clamp in N2A cells; conditions: 10 μM
[1] = biological target: channels built out of Cx36 (Homo sapiens, UniProt Q9UKL4); assay: Cx36 junctional current, dual whole-cell patch-clamp; conditions: 10 μM
Sequence of channels built out of Cx36 (Q9UKL4 whole entry): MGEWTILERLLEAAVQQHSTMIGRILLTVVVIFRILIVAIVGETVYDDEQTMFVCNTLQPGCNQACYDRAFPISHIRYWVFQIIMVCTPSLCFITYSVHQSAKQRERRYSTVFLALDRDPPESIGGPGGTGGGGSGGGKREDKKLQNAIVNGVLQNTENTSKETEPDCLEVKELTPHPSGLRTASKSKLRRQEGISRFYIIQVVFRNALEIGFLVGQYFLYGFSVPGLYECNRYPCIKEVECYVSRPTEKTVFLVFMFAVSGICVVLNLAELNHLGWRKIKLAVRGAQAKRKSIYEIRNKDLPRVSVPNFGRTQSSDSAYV

Cx46 GJ channels = Cx46 GJ channels (Rattus norvegicus, UniProt P29414); assay: Cx46 junctional current, dual whole-cell voltage-clamp in N2A cells; conditions: 10 μM
hKCa3.1 = hKCa3.1 (Homo sapiens, UniProt O15554); assay: KCa3.1 current, whole-cell patch-clamp
Sequence of hKCa3.1 (O15554 whole entry): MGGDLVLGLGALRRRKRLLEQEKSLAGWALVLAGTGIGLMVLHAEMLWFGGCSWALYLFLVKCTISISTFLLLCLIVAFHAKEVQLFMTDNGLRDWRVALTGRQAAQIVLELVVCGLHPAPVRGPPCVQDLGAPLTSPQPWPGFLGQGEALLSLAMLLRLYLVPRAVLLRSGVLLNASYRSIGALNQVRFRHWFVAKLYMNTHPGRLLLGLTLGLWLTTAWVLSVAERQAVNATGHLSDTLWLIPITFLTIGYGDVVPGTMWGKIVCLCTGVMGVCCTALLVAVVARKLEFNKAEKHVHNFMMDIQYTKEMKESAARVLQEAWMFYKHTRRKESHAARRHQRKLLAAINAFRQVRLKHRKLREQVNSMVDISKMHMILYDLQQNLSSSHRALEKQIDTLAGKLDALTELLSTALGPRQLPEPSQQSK

Sequence of Cx50 GJ channels (P28236 whole entry): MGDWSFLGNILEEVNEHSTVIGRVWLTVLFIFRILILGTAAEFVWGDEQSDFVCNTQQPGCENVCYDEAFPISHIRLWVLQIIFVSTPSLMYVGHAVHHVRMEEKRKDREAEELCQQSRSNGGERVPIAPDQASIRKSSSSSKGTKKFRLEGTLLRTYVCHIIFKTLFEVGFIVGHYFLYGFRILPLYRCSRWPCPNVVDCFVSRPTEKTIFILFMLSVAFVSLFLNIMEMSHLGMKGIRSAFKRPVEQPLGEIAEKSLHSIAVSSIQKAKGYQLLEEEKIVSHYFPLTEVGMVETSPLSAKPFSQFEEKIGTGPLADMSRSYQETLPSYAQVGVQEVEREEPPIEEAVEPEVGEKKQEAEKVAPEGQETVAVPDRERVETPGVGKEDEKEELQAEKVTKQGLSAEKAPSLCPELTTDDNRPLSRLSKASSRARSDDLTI
Sequence of Cx32 GJ channels (P08033 whole entry): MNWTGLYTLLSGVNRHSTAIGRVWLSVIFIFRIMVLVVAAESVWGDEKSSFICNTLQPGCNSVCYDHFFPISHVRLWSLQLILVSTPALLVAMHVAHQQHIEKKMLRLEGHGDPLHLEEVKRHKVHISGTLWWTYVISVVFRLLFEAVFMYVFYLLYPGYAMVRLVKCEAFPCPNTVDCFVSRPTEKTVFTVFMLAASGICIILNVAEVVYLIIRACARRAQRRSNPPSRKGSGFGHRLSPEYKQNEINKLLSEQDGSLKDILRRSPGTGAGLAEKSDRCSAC

SMILES | effect on Cx50 junctional current (Cx50 GJ channels) | IC50 (Cx50 GJ channels) | further results
COc1ccc(CCN2CCC(Nc3nc4ccccc4n3Cc3ccc(F)cc3)CC2)cc1 [Astemizole, reference compound] | significant inhibition | – | reversibility of inhibition of Cx50 junctional currents upon washout (Cx50 GJ channels): completely reversible
Clc1ccccc1C(c1ccccc1)(c1ccccc1)n1ccnc1 [Clotrimazole] | – | – | inhibition of Cx32 GJ channel current / reduction of junction conductance (Cx32 GJ channels): no effect; effect on channels built out of Cx36 [1]: no effect; inhibition of Cx46 GJ channel current / reduction of junction conductance (Cx46 GJ channels): no effect
OC(c1ccccc1)(c1ccccc1)c1ccc(Cl)cc1 [T1, (4-Chlorophenyl)diphenylmethanol] | – | 2.8 µM | IC50 (hKCa3.1; IC50 KCa3.1 (μM), Table A1): 0.53 µM
OC(c1ccccc1)(c1ccccc1)c1cccc(Cl)c1 [T2, (3-Chlorophenyl)diphenylmethanol] | – | 3.6 µM | IC50 (hKCa3.1; IC50 KCa3.1 (μM), Table A1): 0.55 µM
OC(c1ccccc1)(c1ccccc1)c1ccncc1 [T50, diphenyl-4-pyridylmethanol] | – | 10 µM | IC50 (hKCa3.1): > 50 µM
O=C(O)CC(c1ccccc1)(c1ccccc1)c1ccccc1 [T51, 3,3,3-triphenylpropionic acid] | – | – | IC50 Cx50 (μM) (Cx50 GJ channels; Table A1, alcohols, amines, nitriles and ureas): No effect; IC50 (hKCa3.1; IC50 KCa3.1 (μM), Table A1): 25 µM
FC(F)(F)Oc1cccc(NC(c2ccccc2)(c2ccccc2)c2ccccc2Cl)c1 [T102, N-[(2-Chlorophenyl)diphenylmethyl]-3-(trifluoromethoxy)aniline] | no effect | – | –
FC(F)(F)Oc1ccccc1NC(c1ccccc1)(c1ccccc1)c1ccccc1Cl [T104, N-[(2-Chlorophenyl)diphenylmethyl]-2-(trifluoromethoxy)aniline] | no effect | – | –
COc1ccc(NC(c2ccccc2)(c2ccccc2)c2ccccc2Cl)cc1 [T106, N-[(2-Chlorophenyl)diphenylmethyl]-4-methoxyaniline] | – | 10 µM | –
Clc1ccccc1C(Oc1ccccc1)(c1ccccc1)c1ccccc1 [T107, 1-Chloro-2-(phenoxydiphenylmethyl)benzene] | no effect | – | –
Clc1ccccc1C(Nc1ccccc1)(c1ccccc1)c1ccccc1 [T109, N-[(2-Chlorophenyl)diphenylmethyl]aniline] | no effect | – | –
